From PubChem BioAssay AID256 (DTP/NCI, 2004)
Where “and” joins values, the source holds several entries; their conditions need not be identical. Equal values may be shown once. Inconclusive results and toxic doses are left out. Rule for the calls: active = survival T/C of 150% or more; inactive = T/C below 125% in these data.

System: CD2F1 mice, L1210 leukemia ip, survival T/C
Test: NCI In Vivo Anticancer Drug Screen. Data for tumor model L1210 Leukemia (intraperitoneal) in CD2F1 (CDF1) mice
Conditions: higher = longer survival
In short: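 Each value reflects a quotient of treated over vehicle control outcomes in mice with a transplanted tumor.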

[1] = endpoint: mean survival time, dose: 25.0 mg/kg/injection, schedule: Q01DX009 (ip), vehicle: saline with Tween-80
[2] = endpoint: mean survival time, dose: 50.0 mg/kg/injection, schedule: Q01DX009 (ip), vehicle: saline with Tween-80
[3] = endpoint: mean survival time, dose: 50.0 mg/kg/injection, schedule: Q04DX003 (ip), vehicle: saline with Tween-80
[4] = endpoint: mean survival time, dose: 100.0 mg/kg/injection, schedule: Q01DX009 (ip), vehicle: saline with Tween-80
[5] = endpoint: mean survival time, dose: 100.0 mg/kg/injection, schedule: Q04DX003 (ip), vehicle: saline with Tween-80
[6] = endpoint: mean survival time, dose: 0.75 mg/kg/injection, schedule: Q01DX009 (ip), vehicle: distilled water + Tween-80
[7] = endpoint: mean survival time, dose: 1.5 mg/kg/injection, schedule: Q01DX009 (ip), vehicle: distilled water + Tween-80
[8] = endpoint: mean survival time, dose: 3.0 mg/kg/injection, schedule: Q01DX009 (ip), vehicle: distilled water + Tween-80
[9] = endpoint: mean survival time, dose: 6.0 mg/kg/injection, schedule: Q01DX009 (ip), vehicle: distilled water + Tween-80
[10] = endpoint: mean survival time, dose: 12.0 mg/kg/injection, schedule: Q01DX009 (ip), vehicle: distilled water + Tween-80
[11] = endpoint: mean survival time, dose: 100.0 mg/kg/injection, schedule: Q01DX001 (ip), vehicle: saline with Tween-80
[12] = endpoint: mean survival time, dose: 25.0 mg/kg/injection, schedule: Q01DX009 (ip), vehicle: saline
[13] = endpoint: mean survival time, dose: 50.0 mg/kg/injection, schedule: Q01DX001 (ip), vehicle: saline
[14] = endpoint: mean survival time, dose: 50.0 mg/kg/injection, schedule: Q01DX009 (ip), vehicle: saline
[15] = endpoint: mean survival time, dose: 50.0 mg/kg/injection, schedule: Q04DX003 (ip), vehicle: saline
[16] = endpoint: mean survival time, dose: 100.0 mg/kg/injection, schedule: Q01DX001 (ip), vehicle: saline
[17] = endpoint: mean survival time, dose: 100.0 mg/kg/injection, schedule: Q01DX009 (ip), vehicle: saline
[18] = endpoint: mean survival time, dose: 100.0 mg/kg/injection, schedule: Q04DX003 (ip), vehicle: saline
[19] = endpoint: mean survival time, dose: 200.0 mg/kg/injection, schedule: Q01DX001 (ip), vehicle: saline
[20] = endpoint: mean survival time, dose: 200.0 mg/kg/injection, schedule: Q01DX009 (ip), vehicle: saline with Tween-80

Measured: T/C

O=[N+]([O-])c1ccc(N=Nc2ccc(N3CC3)c([N+](=O)[O-])c2)cc1
inactive: endpoint: mean survival time, dose: 65.0 mg/kg/injection, schedule: Q01DX001 (ip), vehicle: Klucel (hydroxypropylcellulose) (HPC) 96 % of control | endpoint: mean survival time, dose: 130.0 mg/kg/injection, schedule: Q01DX001 (ip), vehicle: Klucel (hydroxypropylcellulose) (HPC) 88 % of control | endpoint: mean survival time, dose: 260.0 mg/kg/injection, schedule: Q01DX001 (ip), vehicle: Klucel (hydroxypropylcellulose) (HPC) 89 % of control

CNC(=O)n1ncnc1N
inactive: endpoint: mean survival time, dose: 12.5 mg/kg/injection, schedule: Q01DX001 (ip), vehicle: carboxymethylcellulose (CMC) 95 % of control | endpoint: mean survival time, dose: 25.0 mg/kg/injection, schedule: Q01DX001 (ip), vehicle: carboxymethylcellulose (CMC) 100 % of control | endpoint: mean survival time, dose: 50.0 mg/kg/injection, schedule: Q01DX001 (ip), vehicle: carboxymethylcellulose (CMC) 95 % of control | endpoint: mean survival time, dose: 100.0 mg/kg/injection, schedule: Q01DX001 (ip), vehicle: carboxymethylcellulose (CMC) 91 % of control | endpoint: mean survival time, dose: 200.0 mg/kg/injection, schedule: Q01DX001 (ip), vehicle: carboxymethylcellulose (CMC) 93 % of control

Cc1ccc(C(C)C)c(O)c1O
inactive: [1] 94 % of control | endpoint: mean survival time, dose: 25.0 mg/kg/injection, schedule: Q04DX003 (ip), vehicle: saline with Tween-80 96 % of control | [2] 103 % of control | [3] 98 % of control | [4] 97 % of control | [5] 94 % of control

C/C(Cl)=C\CNc1ncnc2c1ncn2C1OC(CO)C(O)C1O (centres undefined)
inactive: endpoint: mean survival time, dose: 6.25 mg/kg/injection, schedule: Q01DX005 (ip), vehicle: distilled water + Tween-80 103 % of control | endpoint: mean survival time, dose: 12.5 mg/kg/injection, schedule: Q01DX005 (ip), vehicle: distilled water + Tween-80 101 % of control | endpoint: mean survival time, dose: 25.0 mg/kg/injection, schedule: Q01DX005 (ip), vehicle: distilled water + Tween-80 91 % of control | endpoint: mean survival time, dose: 50.0 mg/kg/injection, schedule: Q01DX005 (ip), vehicle: distilled water + Tween-80 100 % of control | endpoint: mean survival time, dose: 100.0 mg/kg/injection, schedule: Q01DX005 (ip), vehicle: distilled water + Tween-80 101 % of control

CS(=O)(=O)OC1CC(n2ccc(=O)[nH]c2=O)OC1COC(c1ccccc1)(c1ccccc1)c1ccccc1 (centres undefined)
inactive: endpoint: median survival time, dose: 12.5 mg/kg/injection, schedule: Q01DX005 (ip), vehicle: saline with Tween-80 98 % of control and 103 % of control | endpoint: median survival time, dose: 25.0 mg/kg/injection, schedule: Q01DX005 (ip), vehicle: saline with Tween-80 100 % of control and 96 % of control | endpoint: median survival time, dose: 50.0 mg/kg/injection, schedule: Q01DX005 (ip), vehicle: saline with Tween-80 108 % of control and 94 % of control | endpoint: median survival time, dose: 100.0 mg/kg/injection, schedule: Q01DX005 (ip), vehicle: saline with Tween-80 100 % of control and 94 % of control | endpoint: median survival time, dose: 200.0 mg/kg/injection, schedule: Q01DX005 (ip), vehicle: saline with Tween-80 98 % of control and 101 % of control

CCCCCCCCCCS(=O)CC(CO)NC(=O)/C=C/c1c(C)[nH]c(=O)[nH]c1=O (centres undefined)
inactive: endpoint: mean survival time, dose: 0.37 mg/kg/injection, schedule: Q01DX009 (ip), vehicle: distilled water + Tween-80 102 % of control and 106 % of control | [6] 110 % of control and 111 % of control | [7] 113 % of control and 101 % of control | [8] 114 % of control and 117 % of control | [9] 117 % of control | [10] 89 % of control and 96 % of control

OC(c1ccccc1)(c1ccccc1)C1c2ccccc2-c2[nH]c3ccccc3c21 (centres undefined)
inactive: endpoint: mean survival time, dose: 25.0 mg/kg/injection, schedule: Q01DX001 (ip), vehicle: saline with Tween-80 96 % of control | endpoint: mean survival time, dose: 50.0 mg/kg/injection, schedule: Q01DX001 (ip), vehicle: saline with Tween-80 93 % of control | [11] 89 % of control

O=C1[O][Sb]23[O]C(=O)C([O]2)C(O)C(O)C2[O][Sb]4([O]C(=O)C([O]4)C(O)C(O)C1[O]3)[O]C2=O (centres undefined)
inactive: [12] 95 % of control | [13] 97 % of control | [14] 95 % of control | [15] 87 % of control | [16] 101 % of control | [17] 98 % of control | [18] 91 % of control | [19] 96 % of control

CC(C)(C)C1SCC(CO)CS1 (centres undefined)
inactive: endpoint: mean survival time, dose: 100.0 mg/kg/injection, schedule: Q04DX002 (ip), vehicle: saline with Tween-80 97 % of control | endpoint: mean survival time, dose: 200.0 mg/kg/injection, schedule: Q04DX002 (ip), vehicle: saline with Tween-80 102 % of control | endpoint: mean survival time, dose: 400.0 mg/kg/injection, schedule: Q04DX002 (ip), vehicle: saline with Tween-80 91 % of control

Cc1cc(C)c(CCl)cc1CCl
inactive: endpoint: mean survival time, dose: 12.5 mg/kg/injection, schedule: Q01DX009 (ip), vehicle: saline with Tween-80 100 % of control | [1] 98 % of control | [3] 103 % of control

Nc1nc(N)c2c(n1)NCN(CCc1c(Cl)cccc1Cl)C2
inactive: [6] 98 % of control | [7] 102 % of control | [8] 98 % of control | [9] 98 % of control | [10] 104 % of control | endpoint: mean survival time, dose: 24.0 mg/kg/injection, schedule: Q01DX009 (ip), vehicle: distilled water + Tween-80 98 % of control | endpoint: mean survival time, dose: 37.5 mg/kg/injection, schedule: Q01DX009 (ip), vehicle: distilled water + Tween-80 100 % of control | endpoint: mean survival time, dose: 75.0 mg/kg/injection, schedule: Q01DX009 (ip), vehicle: distilled water + Tween-80 97 % of control

CCc1ncc(C(O)c2ccc(Cl)cc2)n1Cc1ccccc1 (centres undefined)
inactive: [4] 92 % of control | [20] 95 % of control | endpoint: mean survival time, dose: 400.0 mg/kg/injection, schedule: Q01DX009 (ip), vehicle: saline with Tween-80 92 % of control

O=S(=O)(O)c1ccc(-c2ccc(S(=O)(=O)O)cc2)cc1
inactive: endpoint: mean survival time, dose: 6.3 mg/kg/injection, schedule: Q01DX009 (ip), vehicle: saline 104 % of control | endpoint: mean survival time, dose: 6.3 mg/kg/injection, schedule: Q04DX003 (ip), vehicle: saline 102 % of control | endpoint: mean survival time, dose: 12.5 mg/kg/injection, schedule: Q01DX001 (ip), vehicle: saline 101 % of control | endpoint: mean survival time, dose: 12.5 mg/kg/injection, schedule: Q01DX009 (ip), vehicle: saline 104 % of control | endpoint: mean survival time, dose: 12.5 mg/kg/injection, schedule: Q04DX003 (ip), vehicle: saline 100 % of control | endpoint: mean survival time, dose: 25.0 mg/kg/injection, schedule: Q01DX001 (ip), vehicle: saline 103 % of control | [12] 101 % of control | endpoint: mean survival time, dose: 25.0 mg/kg/injection, schedule: Q04DX003 (ip), vehicle: saline 100 % of control | [13] 101 % of control | [14] 104 % of control | [15] 93 % of control | [16] 100 % of control and 108 % of control | [17] 106 % of control | [18] 103 % of control | [19] 100 % of control and 105 % of control | endpoint: mean survival time, dose: 200.0 mg/kg/injection, schedule: Q01DX009 (ip), vehicle: saline 98 % of control | endpoint: mean survival time, dose: 200.0 mg/kg/injection, schedule: Q04DX003 (ip), vehicle: saline 100 % of control | endpoint: mean survival time, dose: 400.0 mg/kg/injection, schedule: Q01DX001 (ip), vehicle: saline 104 % of control and 107 % of control

CSc1ccccc1C1=CCCCCC1
inactive: [2] 103 % of control | [11] 96 % of control | [4] 93 % of control | endpoint: mean survival time, dose: 200.0 mg/kg/injection, schedule: Q01DX001 (ip), vehicle: saline with Tween-80 94 % of control | [20] 94 % of control

O=P(Oc1ccccc1)(Oc1ccccc1)C(Nc1ccccc1)c1ccncc1 (centres undefined)
inactive: [5] 93 % of control | endpoint: mean survival time, dose: 200.0 mg/kg/injection, schedule: Q04DX003 (ip), vehicle: saline with Tween-80 100 % of control | endpoint: mean survival time, dose: 400.0 mg/kg/injection, schedule: Q04DX003 (ip), vehicle: saline with Tween-80 102 % of control
